Laboratory results: article PMC3280530, “Marine Compounds Selectively Induce Apoptosis in Female Reproductive Cancer Cells but Not in Primary-Derived Human Reproductive Granulosa Cells” (Marine Drugs, 2012)
Read-outs that look alike come from different tables or passages of the source.

What was measured:
[1] = tested on: primary-derived human reproductive granulosa cells (HGC); test: Crystal violet cell viability assay; assay type: cell-based
Protocol: (§1) For cell assays, the D. orbita fractions were prepared fresh on the day of the experiment by dissolving in dimethyl sulfoxide (DMSO; 100%) at 100× the final concentration. These were diluted to a range of working concentrations (0.001–0.5 mg/mL) in complete cell assay medium to give a final working concentration per well of 1% DMSO. All samples were filtered through a […] (Sartorius) filter before use.
(§2) The primary-derived granulosa cells, along with the KGN, JAr and OVCAR-3 cell lines (10,000 cells per well) were plated into sterile white (opaque) 96-well plates (Interpath) and clear sterile 96-well plates (Interpath) in 0.1 mL per well of complete cell culture medium for 24 h (granulosa, KGN and OVCAR-3 cells) and 2 h (for JAr cells) to allow cell adherence. Standard curves of 0–40,000 cells per well (primary granulosa cells) and 0–80,000 cells per well (for KGN, JAr and OVCAR-3 cells) in six replicate wells were plated into clear 96-well plates, alongside the test plates. After the initial cell adherence period, spent media (media deficient of nutrients and serum) were discarded and primary-derived granulosa, KGN, JAr and OVCAR-3 cells were treated with the two D. orbita fractions at concentrations of 0.005, 0.01, 0.05, 0.1, and 0.5 mg/mL in a final volume of 0.1 mL per well in triplicate wells, for 4 and 24 h at 37 °C + 5% CO2. 1 h prior to the end of eachincubation period two positive controls were added; one for apoptosis (1 μg/mL DNase I), and the second for necrosis (2 μL per well of a cell lysis buffer; Promega). This experiment was repeated on three separate occasions (n = 3).
(§3) After 4 and 24 h exposure to D. orbita fractions in clear 96-well plates, media and all dead unattached cells were removed. The remaining adherent cells were rinsed with sterile 1× PBS and the crystal violet assay was performed. The crystal violet assay is a colourmetric assay in which only the nuclei of live cells take up the crystal violet stain (0.5%). The absorbance in the wells of the crystal violet plates were read on an automatic spectrophotometer at 570 nm, with reference absorbance 630 nm using KC Junior Software. This assay was repeated on three separate occasions (n = 3).

KGN cells [2] = test: Crystal violet cell viability assay; assay type: cell-based; conditions: Homo sapiens
Protocol: as §1, §2, §3

OVCAR-3 cells [3] = test: Crystal violet cell viability assay; assay type: cell-based; conditions: Homo sapiens, OVCAR-3, crystal violet
Protocol: as §1, §2, §3

JAr cells [4] = test: Crystal violet cell viability assay; assay type: cell-based; conditions: Homo sapiens
Protocol: as §1, §2, §3

U937 lymphoma cell line = conditions: U937, 4 h exposure, tyrindoleninone in an impure extract; read-out: concentration giving 50% reduction in cell viability; cited from earlier work
KGN cells [5] = test: MTT cell viability assay; assay type: cell-based, human; conditions: Homo sapiens
Protocol: as §1, §2
(§4) After 4, 24, 48 and 72 h exposure to D. orbita fractions in clear 96-well plates, media and all dead unattached cells were removed. The remaining adherent cells were rinsed with sterile 1× PBS and the MTT assay was performed. The MTT assay measures the reduction of a yellow substrate to formazan, a purple precipitate, by the mitochondrial succinate dehydrogenase enzymes. A solution of 0.5 mg/mL MTT (was added to wells in a final volume of 0.1 mL. The plates were then incubated for 1 h (JAr cells) and 18 h (KGN, OVCAR-3 and GC cells) at 37 °C and 5% CO2. At the end of the incubation period, 80 μL/well 20% SDS in 0.02 M HCl was added and plate was incubated for a further 1 h at room temperature in the dark. The absorbance was the measured at 570 nm, with reference absorbance 630 nm, using an automatic spectrophotometer using KC Junior software. This assay was repeated on three separate occasions (n = 3).

OVCAR-3 cells [6] = test: MTT cell viability assay; assay type: cell-based, human; conditions: Homo sapiens, OVCAR-3, MTT
Protocol: as §1, §2, §4

[7] = tested on: primary-derived human reproductive granulosa cells (HGC); test: TUNEL staining (apoptosis); assay type: cell-based
Protocol: (§5) Primary-derived human granulosa cells and KGN cells were plated into Nunc Lab-Tek II CC2 Chamber Slides at 30,000 cells per chamber well in a final volume of 0.3 mL of DMEM/F12 + 10% FBS complete cell culture medium and incubated for 24 h at 37 °C + 5% CO2 to allow cell attachment to slides. Spent media (media deficient of nutrients and serum) and non-viable and non-adherent cellswere discarded and replaced with the D. orbita fractions at concentrations of 0.005, 0.01 and 0.05 mg/mL in a final volume of 0.3 mL of DMEM/F12 + 10% medium. A medium-only and a 1% DMSO control were also added before incubation for 4 and 24 h at 37 °C + 5% CO2. This experiment was repeated on three separate occasions (n = 3). The supernatant was removed and the cells rinsed with PBS before fixation with 4% paraformaldehyde for 25 min at room temperature. The DeadEnd™ Fluorometric TUNEL System (Promega) was performed as recommended by the manufacturer. Briefly the cells were treated with 0.2% Triton X-100 for 5 min, to permeablize the cells. The cells were rinsed in PBS before the addition of 50 μL of rTdT incubation buffer (Promega) at 37 °C for 1 h, protected from light. Cells were rinsed in 2× sodium chloride and sodium citratesolution (Promega) for 15 min at room temperature (25 °C) then rinsed again with PBS. The cells were counter-stained with 1 μg/mL propidium iodide (PI). A separate positive control slide of 1 μg/mL DNase I, and a negative control slide of buffer without rTdT, was prepared in conjunction with treatment slides. Cells were examined immediately and photographed at 200 and 400× magnification using a Fluorescence Olympus BX50 Microscope with filter Chroma 31001 at excitation 450–495 nm, Dichroic 505 and emission 515–555 nm for the green fluorescein of TUNEL and Chroma 31002 at excitation 515–550 nm, Dichroic 565 and emission 575–615 nm for the red fluorescence of the PI staining. Photomicrographs of four fields of view were taken for each treatment in each repeat of theassay and the number of TUNEL positive nuclei, stained bright green, were calculated as a fraction of the total number of PI stained nuclei, stained bright red, in each image. The average of the four fields was then calculated.

[8] = tested on: untransformed human mononuclear cells (MNC); set-up: method as in PMID 19491143, PMID 17088067; conditions: in vitro, cited from earlier work
[9] = tested on: MCF-7 breast carcinoma cells; set-up: method as in PMID 19491143; conditions: MCF-7, 4 h exposure, tyrindoleninone in an impure extract; read-out: concentration giving 50% reduction in cell viability; cited from earlier work
[10] = tested on: caspase-3 and -7 activity in KGN cells; test: Caspase-Glo 3/7 assay; assay type: cell-based, human; conditions: 4 h treatment
Protocol: as §2
(§6) After 4 and 24 h exposure to the D. orbita fractions in opaque 96-well plates, a combined membrane integrity and caspase 3/7 assay were performed on the primary-derived granulosa cells and KGN cells. The CytoTox-ONE Homogeneous Membrane Integrity Assay kit (Promega) was applied according to the manufacturer’s instructions. After the fluorescence was read at 535EX/590EM, the Caspase-Glo 3/7® assay (Promega) was applied to the primary granulosa cells and KGN cells according to the manufacturer’s instructions for1h and the plates were read on full light to capture total luminescence. The LDH-membrane integrity assay alone was performed on the JAr and OVCAR-3 cells using the CytoTox-ONE Homogeneous Membrane Integrity Assay kit (Promega). This assay was repeated on three separate occasions (n = 3).

[11] = tested on: caspase-3 and -7 activity in HGC; test: Caspase-Glo 3/7 assay; assay type: cell-based, human; conditions: 4 h treatment
Protocol: as §2, §6

KGN cells [12] = test: LDH membrane integrity assay (necrosis); assay type: cell-based, human
Protocol: as §2, §6

OVCAR-3 cells [13] = test: LDH membrane integrity assay (necrosis); assay type: cell-based, human; conditions: OVCAR-3, 4 h exposure
Protocol: as §2, §6

JAr cells [14] = test: LDH membrane integrity assay (necrosis); assay type: cell-based, human; conditions: 4 h exposure
Protocol: as §2, §6

[15] = tested on: primary-derived human reproductive granulosa cells (HGC); test: LDH membrane integrity assay (necrosis); assay type: cell-based
Protocol: as §2, §6

[16] = tested on: CaCo2 colon carcinoma cells; set-up: method as in PMID 19491143; conditions: CaCo2, 4 h exposure, tyrindoleninone in an impure extract; read-out: concentration giving 50% reduction in cell viability; cited from earlier work
[17] = tested on: primary-derived human reproductive granulosa cells (HGC); test: MTT cell viability assay; assay type: cell-based; conditions: for IC50: Homo sapiens, HGC, MTT
Protocol: as §1, §2, §4

JAr cells [18] = test: MTT cell viability assay; assay type: cell-based; conditions: Homo sapiens
Protocol: as §1, §2, §4

lymphoma cell = tested on: lymphoma cell; set-up: method as in PMID 17088067; conditions: 1 h exposure; read-out: concentration giving (predicted) 50% reduction in lymphoma cell viability; cited from earlier work
KGN cells [19] = test: TUNEL staining (apoptosis); assay type: cell-based, human
Protocol: as §5

[20] = tested on: caspase-3 and -7 in the Jurkat cell line; set-up: method as in PMID 17088067; conditions: after 5 h; cited from earlier work

## CSC1=Nc2cc(Br)ccc2C1=O [Tyrindoleninone, tyrindoleninone]
[1]; 4 h
  IC50: > 1950 µM
[1]; 24 h
  IC50: > 1950 µM
KGN cells [2]; 4 h
  IC50: 156 µM
KGN cells [2]; 24 h
  IC50: 156 µM
OVCAR-3 cells [3]; 4 h
  IC50: 313 µM
OVCAR-3 cells [3]; 24 h
  IC50: 352 µM
JAr cells [4]; 4 h
  IC50: 234 µM
JAr cells [4]; 24 h
  IC50: 195 µM
U937 lymphoma cell line
  IC50: 391 µM
KGN cells [5]; 4 h
  IC50: 39 µM
KGN cells [5]; 24 h
  IC50: 78 µM
KGN cells [5]; 48 h
  IC50: 20 µM
KGN cells [5]; 72 h
  IC50: < 20 µM
OVCAR-3 cells [6]; OVCAR-3, 4 h, 4 h
  IC50: 156 µM
OVCAR-3 cells [6]; OVCAR-3, 24 h, 24 h
  IC50: 234 µM
OVCAR-3 cells [6]; OVCAR-3, 48 h, 48 h
  IC50: 31 µM
OVCAR-3 cells [6]; OVCAR-3, 72 h, 72 h
  IC50: < 20 µM
[7]; 4 h, 0.05 mg/mL
  TUNEL positive cells: 31%
[7]; 24 h, 0.005 mg/mL
  TUNEL labelled cells: 16%
[8]; 1 h exposure, read-out: IC50
  IC50: 195 µM
[8]
  IC50: 50 mg/L
[9]
  IC50: 391 µM
[10]
  concentration at which caspase-3 and -7 activity (apoptosis) significantly increased: 20 µM
[11]
  concentration at which caspase-3 and -7 activity (apoptosis) was noted: 391 µM
KGN cells [12]; 4 h, 1953 µM (0.5 mg/mL)
  LDH released (fluorescence 535EX/590EM): 1612 ± 771
KGN cells [12]; 4 h exposure
  concentration required to cause LDH release (necrosis): 1953 µM
KGN cells [12]; 24 h exposure
  concentration required to cause LDH release (necrosis): 195 µM
OVCAR-3 cells [13]
  concentration at which necrosis (LDH release) was detected: 391 µM
JAr cells [14]
  concentration at which necrosis (LDH release) was detected: 195 µM
[15]; 4 h, 1953 µM (0.5 mg/mL)
  LDH released (fluorescence 535EX/590EM): 876 ± 1084
[15]; 4 h exposure
  concentration required to cause LDH release (necrosis): 1953 µM
[15]; 24 h exposure
  concentration required to cause LDH release (necrosis): 1953 µM
[16]
  IC50: 391 µM
[17]; 4 h
  IC50: 3520 µM
[17]; 24 h
  IC50: 1560 µM
[17]; 48 h
  IC50: 1560 µM
[17]; 72 h
  IC50: 1560 µM
[17]; after 24, 48 and 72 h treatment, KGN, JAr, OVCAR-3 vs HGC
  IC50 values fold lower for all three reproductive cancer cell lines than for the HGC: approximately 10 fold
JAr cells [18]; 4 h
  IC50: 39 µM
JAr cells [18]; 24 h
  IC50: 117 µM
JAr cells [18]; 48 h
  IC50: 78 µM
Lymphoma cell
  IC50: 4 µM
KGN cells [19]; 4 h, 0.05 mg/mL
  TUNEL positive cells: 66%
KGN cells [19]; 24 h, 0.005 mg/mL
  TUNEL labelled cells: 62%

## O=C1Nc2c(cc(Br)c(Br)c2Br)C1=O [5,6,7-tribromoisatin]
[20]
  concentration activating caspase-3 and -7: 8 µM
